The source of these data is article PMC10582333 (Frontiers in Pharmacology, 2023).

Where two headings read alike, the source gives them in different places. Bounds are passed on as bounds.

In general, IC50 refers to the concentration that gives 50% inhibition.

For series [1], the system named is de novo protein synthesis. More on the design: method as in Zalacain et al., 1982; Chan et al., 2004; Keysar et al., 2020. The settings on record: ref Zalacain et al., 1982; Chan et al., 2004; Keysar et al., 2020; cited from earlier work.
In series [2] the test system is castration-resistant prostate cancer (CRPC). As to conditions: cited from earlier work.
Series [3] concerns AR. On the set-up: method as in Rice et al., 2019. The settings on record: ref Rice et al., 2019; cited from earlier work. An excerpt:
Prostate cancer is the second leading cause of cancer death among men in the United States. […] Therefore, androgen or Androgen R targeted therapy has become a major focus for the prevention ...

The conditions of series [4]: ref Rice et al., 2019; cited from earlier work. An excerpt: Prostate cancer is the second leading cause of cancer death among men in the United States. According to the National Cancer Institute over 3 million men in the United States are living with prostate cancer, with 288,300 additional cases and 34,700 deaths expected in 2023. Androgen receptor (AR) signaling plays a key role in development of Benign prostatic hyperplasia (BPH) and prostate cancer ([Shiota et al., 2011]; [Gioeli and Paschal, 2012]; [Mills, 2014]; [Wong et al., 2014]; [Tan et al., 2015]). Therefore, androgen or Androgen R targeted therapy has become a major focus for the prevention ...

The target of series [5] is androgen receptor (Homo sapiens, UniProt P10275). In kind it is cell-based. As to the method:
(§1) The 22RV1, LNCaP and PC3 cell lines were stably transfected with a PGL4.2 luciferase reporter (Promega, Madison, USA). This reporter contains a sequence (3xgtaattgcagaacagcaagtgctagctctc) representing the wild type of Androgen Response Element (ARE) derived from the Prostate-Specific Antigen (PSA) promoter. […] This transfection was accomplished using Lipofectamine 3000 (Thermo Fisher Scientific, Waltham, MA). Stable clones were selected and maintained with puromycin (0.5 μg/mL). […] The pcDNA5 plasmid (Thermo Fisher Scientific, Waltham, MA), carrying the full open reading frame of GR, was transfected into LNCaP cells, and hygromycin (50 μg/mL) was employed to select and maintain stable clones.
10^4 reporter cells per well of 96-well plate were seeded in RPMI1640 media supplemented with 5% dialysis activated carbon treated FBS, 50 μg/mL Kanamycin in a 37°C, 5% CO2 incubator for 48 h. Cells were treated with herbal extracts at 30, 100, 300, and 600 μg/mL for 24 h in a 37°C-CO2 incubator. […] Dexamethasone (50 nM) was used to stimulate glucocorticoid receptor activity. Cells were lysed using luciferase lysis buffer after which luciferase buffer with luciferin was added to generate luminescence. Luminescence was recorded using a luminescence microplate reader. The IC50 is the concentration of treatment agent required to reduce the measured luminescence to half of its maximal value. […]

Series [6] has as its target T1, androgen receptor (Homo sapiens, UniProt P10275, T878A).
T1 construct: LNCaP cells that only express AR and respond solely to DHT; endogenous in cells; host or cells: LNCaP; LNCaP-GR
T1 sequence (P10275 1-920 T878A): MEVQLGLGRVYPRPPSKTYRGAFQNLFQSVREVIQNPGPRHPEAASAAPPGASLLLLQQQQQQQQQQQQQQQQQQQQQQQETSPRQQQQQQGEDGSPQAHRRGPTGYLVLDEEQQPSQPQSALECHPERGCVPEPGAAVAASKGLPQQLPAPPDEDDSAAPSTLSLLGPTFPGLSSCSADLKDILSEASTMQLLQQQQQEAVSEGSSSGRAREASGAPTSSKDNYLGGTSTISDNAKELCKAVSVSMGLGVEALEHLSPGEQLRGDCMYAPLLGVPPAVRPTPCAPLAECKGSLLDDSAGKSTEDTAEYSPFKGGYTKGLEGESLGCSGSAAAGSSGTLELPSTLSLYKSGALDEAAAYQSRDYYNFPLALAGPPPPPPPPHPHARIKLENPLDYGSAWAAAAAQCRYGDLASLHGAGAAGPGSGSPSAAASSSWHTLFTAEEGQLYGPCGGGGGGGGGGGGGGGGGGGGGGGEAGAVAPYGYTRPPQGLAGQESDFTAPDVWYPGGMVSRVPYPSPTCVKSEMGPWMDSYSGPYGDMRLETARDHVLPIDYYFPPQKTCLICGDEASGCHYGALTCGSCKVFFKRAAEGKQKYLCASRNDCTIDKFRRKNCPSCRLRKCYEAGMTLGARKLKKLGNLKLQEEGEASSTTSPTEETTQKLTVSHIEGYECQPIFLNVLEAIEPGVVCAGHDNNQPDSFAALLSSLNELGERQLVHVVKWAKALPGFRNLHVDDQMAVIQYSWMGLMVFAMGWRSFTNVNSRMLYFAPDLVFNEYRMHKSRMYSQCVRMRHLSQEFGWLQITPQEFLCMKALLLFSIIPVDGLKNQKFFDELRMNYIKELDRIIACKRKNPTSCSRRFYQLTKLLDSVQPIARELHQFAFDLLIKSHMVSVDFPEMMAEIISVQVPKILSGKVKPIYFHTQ
The series is described as follows: AR (ARE) luciferase reporter assay, LNCaP cells (no ligand or DHT). In kind it is cell-based. On the procedure: as §1
(§2) 10^4 reporter cells per well of 96-well plate were seeded in RPMI1640 media supplemented with 5% dialysis activated carbon treated FBS, 50 μg/mL Kanamycin in a 37°C, 5% CO2 incubator for 48 h. Cells were treated with herbal extracts at 30, 100, 300, and 600 μg/mL for 24 h in a 37°C-CO2 incubator. […] Dexamethasone (50 nM) was used to stimulate glucocorticoid receptor activity. Cells were lysed using luciferase lysis buffer after which luciferase buffer with luciferin was added to generate luminescence. Luminescence was recorded using a luminescence microplate reader. The IC50 is the concentration of treatment agent required to reduce the measured luminescence to half of its maximal value.
(§3) GAPDH was used as protein loading control for normalization. […] Details of experimental procedures are given in Materials and methods.
A general note: Reporter assays use an easily measured gene product as a stand-in for the process of interest.

The target of series [7] is T1, androgen receptor. Kind of series: cell-based. As to the method:
as §1, §2, §3

Series [8] deals with T2, glucocorticoid receptor (Homo sapiens, UniProt P04150).
T2 sequence (P04150 1-777): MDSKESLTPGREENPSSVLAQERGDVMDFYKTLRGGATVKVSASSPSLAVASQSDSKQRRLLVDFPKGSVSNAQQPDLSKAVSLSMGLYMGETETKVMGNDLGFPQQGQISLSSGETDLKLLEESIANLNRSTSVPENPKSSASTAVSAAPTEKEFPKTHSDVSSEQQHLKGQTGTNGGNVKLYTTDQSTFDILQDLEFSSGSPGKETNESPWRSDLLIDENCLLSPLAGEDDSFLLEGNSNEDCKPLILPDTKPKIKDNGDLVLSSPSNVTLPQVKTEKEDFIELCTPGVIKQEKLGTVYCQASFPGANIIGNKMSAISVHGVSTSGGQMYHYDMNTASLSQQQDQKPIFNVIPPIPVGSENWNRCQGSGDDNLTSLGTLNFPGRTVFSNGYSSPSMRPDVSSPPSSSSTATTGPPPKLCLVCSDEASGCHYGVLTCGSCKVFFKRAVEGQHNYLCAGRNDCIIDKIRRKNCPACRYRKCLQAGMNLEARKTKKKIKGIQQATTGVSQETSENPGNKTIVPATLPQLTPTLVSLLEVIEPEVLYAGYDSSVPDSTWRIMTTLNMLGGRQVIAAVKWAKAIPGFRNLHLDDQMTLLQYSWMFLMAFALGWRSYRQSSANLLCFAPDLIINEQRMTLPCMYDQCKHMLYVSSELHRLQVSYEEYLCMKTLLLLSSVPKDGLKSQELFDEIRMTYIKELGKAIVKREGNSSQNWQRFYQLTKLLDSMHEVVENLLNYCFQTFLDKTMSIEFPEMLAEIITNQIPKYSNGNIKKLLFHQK
Kind of series: AR (ARE) luciferase reporter assay, LNCaP-GR cells with DEX (GR-driven). Type of series: cell-based. As to the method: as §1, §2, §3

Series [9] concerns the target T2, glucocorticoid receptor. Kind of series: AR (ARE) luciferase reporter assay, PC3 cells (no ligand or DEX, GR-driven). Type of series: cell-based. On the set-up: PC3 cells that only express GR and respond solely to DEX; endogenous in cells; host or cells: PC3. The settings on record: 24 h. As to the method: as §1, §2, §3
Series [10] concerns the target T2, glucocorticoid receptor. Kind of series: AR (ARE) luciferase reporter assay, 22RV1 cells with DEX (GR-driven). Type of series: cell-based. On the set-up: AR luciferase reporter assay using 22RV1 cells that express GR; endogenous in cells; host or cells: 22RV1. On the procedure: as §1, §2, §3
For series [11], the system named is 22RV1 tumor. Kind of series: 22RV1 xenograft tumor growth in NCR-nude mice. Type of series: in vivo, human. The settings on record: enzalutamide alone, 5 mg/kg po QD, 7 days. The text has this: Differences were considered statistically significant at p < 0.05.
On the technique in general: In xenograft studies the graft and the host belong to different species.

Where [12] appears, read: of patients, ref Cattrini et al., 2022.
Setting [13] is: IC50 for ARE-luciferase reporter.
[14] abbreviates: read-out: IC50 for ARE-luciferase reporter.
The mark [15] stands for this setting: IC50 for ARE-luciferase reporter, ligand: -.
The mark [16] stands for this setting: IC50 for ARE-luciferase reporter, ligand: DEX (50 nM).

Sequence of androgen receptor (Homo sapiens, UniProt P10275) (P10275 whole entry): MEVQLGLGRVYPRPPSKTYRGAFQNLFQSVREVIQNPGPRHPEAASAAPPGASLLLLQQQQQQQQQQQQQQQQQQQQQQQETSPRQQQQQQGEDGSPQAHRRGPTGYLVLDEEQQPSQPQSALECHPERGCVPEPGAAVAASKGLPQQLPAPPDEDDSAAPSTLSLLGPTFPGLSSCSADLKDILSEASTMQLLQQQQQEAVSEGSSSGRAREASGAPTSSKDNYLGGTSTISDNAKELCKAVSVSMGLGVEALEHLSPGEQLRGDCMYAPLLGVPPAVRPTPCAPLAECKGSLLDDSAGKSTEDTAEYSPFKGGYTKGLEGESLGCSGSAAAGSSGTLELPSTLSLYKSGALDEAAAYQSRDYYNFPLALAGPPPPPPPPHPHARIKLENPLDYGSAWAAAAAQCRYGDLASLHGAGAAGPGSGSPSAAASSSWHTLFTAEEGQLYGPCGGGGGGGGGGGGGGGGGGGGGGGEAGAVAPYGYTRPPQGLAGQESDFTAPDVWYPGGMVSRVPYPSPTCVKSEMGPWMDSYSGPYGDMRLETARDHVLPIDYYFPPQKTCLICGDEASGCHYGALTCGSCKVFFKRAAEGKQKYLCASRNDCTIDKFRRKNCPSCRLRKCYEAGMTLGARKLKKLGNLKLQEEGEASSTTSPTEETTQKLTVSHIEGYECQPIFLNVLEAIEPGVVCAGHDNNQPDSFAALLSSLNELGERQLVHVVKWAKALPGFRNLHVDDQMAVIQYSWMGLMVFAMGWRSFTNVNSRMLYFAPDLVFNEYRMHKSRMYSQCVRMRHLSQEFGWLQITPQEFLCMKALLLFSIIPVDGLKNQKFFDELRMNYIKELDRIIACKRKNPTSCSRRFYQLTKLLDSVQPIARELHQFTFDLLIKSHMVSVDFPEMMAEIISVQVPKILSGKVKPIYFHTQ

Bouvardin: the “inhibition of de novo protein synthesis” value in series [1] is “can inhibit de novo protein synthesis”.
Take `CNC(=O)c1ccc(N2C(=S)N(c3cnc(C#N)c(C(F)(F)F)c3)C(=O)C23CCC3)cc1F` [apalutamide]: the “grade 3 adverse events or higher” value in [2] (setting [12]) is listed as “approximately 25%”. In addition, the “most common side effects” value in [2] (ref Cattrini et al., 2022) is “fatigue, hypertension, diarrhea, and weight loss”. Moreover, the “selectivity and potency against AR” value in [3] was “higher selectivity and potency against AR”. Moreover, in [4], the brain penetrance entry is “reductions in brain penetrance”.
For `COc1ccc(C[C@H]2C(=O)N[C@@H](C)C(=O)N(C)[C@H]3Cc4ccc(cc4)Oc4cc(ccc4O)C[C@@H](C(=O)N[C@H](C)C(=O)N[C@@H](CCC(=O)O)C(=O)N2C)N(C)C3=O)cc1` [RA-XI], the “comparative potency (anti-AR and anti-GR activity)” value in series [5] was “significantly reduce the anti-AR and anti-GR activity”. Besides, in [5], the “inhibition of luciferase activity in any assay” value was “did not inhibit luciferase activity in any assay”. Besides, the IC50 in series [6] (setting [13]), in [6] (setting [14]), in [7] (setting [13]), in series [7] (setting [14]), in series [8] and in series [9] (setting [15]) was over 250 nM in each case. For the same molecule, the IC50 in [9] (setting [16]) and in series [10] was over 250 nM throughout.
Take `COc1ccc(C[C@H]2C(=O)N[C@@H](C)C(=O)N(C)[C@H]3Cc4ccc(cc4)Oc4cc(ccc4OC)C[C@@H](C(=O)N[C@H](C)C(=O)N[C@@H](C)C(=O)N2C)N(C)C3=O)cc1` [RA-VII]: the IC50 in [8] is 5.6 ± 2.3 nM; in series [9] (setting [15]), 32 ± 9 nM; in [9] (setting [16]), 3.6 ± 0.6 nM; in [10], 13.5 ± 5 nM.
For `COc1ccc(C[C@H]2C(=O)N[C@@H](C)C(=O)N(C)[C@H]3Cc4ccc(cc4)Oc4cc(ccc4O)C[C@@H](C(=O)N[C@H](C)C(=O)N[C@@H](C)C(=O)N2C)N(C)C3=O)cc1` [RA-V, Deoxybouvardin], the IC50 was 5.3 ± 1.4 nM in [6] (LNCaP, ligand: +DHT (25 nM), 24 h, read-out: IC50 for ARE-luciferase reporter); over 100 nM in [6] (LNCaP, ligand: -, 24 h, read-out: IC50 for ARE-luciferase reporter); 4.1 ± 1.3 nM in [7] (LNCaP-GR, ligand: +DHT (25 nM), 24 h, read-out: IC50 for ARE-luciferase reporter); over 100 nM in [7] (LNCaP-GR, ligand: -, 24 h, read-out: IC50 for ARE-luciferase reporter); 7.8 ± 2.2 nM in [8] (LNCaP-GR, ligand: +DEX (50 nM), 24 h, read-out: IC50 for ARE-luciferase reporter); 40 ± 19 nM in [9] (ligand: -, read-out: IC50 for ARE-luciferase reporter). Further, the IC50 is 5.7 ± 2.3 nM in series [9] (ligand: DEX (50 nM), read-out: IC50 for ARE-luciferase reporter) and 22 ± 5 nM in series [10] (22RV1, ligand: +DEX (50 nM), 24 h, read-out: IC50 for ARE-luciferase reporter).
On to `CC(O)c1cc(C(=O)N[C@@H](C)Cn2ccc(-c3ccc(C#N)c(Cl)c3)n2)[nH]n1` (stereo partly shown) [darolutamide], for which, in [2] (human, in vivo), the “grade 3 adverse events or higher” value is on record as “approximately 25%”; the “most common side effects” value was “fatigue, hypertension, diarrhea, and weight loss”. Also, the “selectivity and potency against AR” value in series [3] is “higher selectivity and potency against AR”. The brain penetrance entry in series [4] is reported as “reductions in brain penetrance”.
Consider `CNC(=O)c1ccc(N2C(=S)N(c3ccc(C#N)c(C(F)(F)F)c3)C(=O)C2(C)C)cc1F` [Enzalutamide], for which the “inhibition of DEX-induced luciferase activity” value in series [8] (LNCaP-GR, DEX 50 nM, 24 h) is given as “no effect”; in series [9] (DEX 50 nM), “no effect”. Further, the 22RV1 tumor growth entry in series [11] is on record as “not found to substantially decrease the growth of 22RV1 tumors”. For the same molecule, the “grade 3 adverse events or higher” value in series [2] (setting [12]) is “approximately 25%”. Also, in series [2] (ref Cattrini et al., 2022), the “most common side effects” value was “fatigue, hypertension, diarrhea, and weight loss”. In series [10] (22RV1, DEX 50 nM, 24 h), the “inhibition of Dex-induced luciferase activity” value is “unable to inhibit GR-mediated luciferase activity”.
